Patent publication US20040096356A1, “Assay device for determining analytes in a liquid dairy product” (priority 1997, published 2004)

Molecular target: T1, receptor BlaR-CTD (Bacillus licheniformis, UniProt P12287)
T1 construct: the receptor BlaR-CTD is the carboxy-terminal region of BlaR
Experiment: 3-minute rapid test: strip test for β-lactam antibiotics in milk using BlaR-CTD
Format: binding
Details: for Intensity 1st band: scale 0 to 10, reference band 6, 47° C., 1 min incubation + 2 min migration
From the text: According to a preferred embodiment of the invention an identifier is used which comprises a receptor sensitive to antibiotics having a β-lactam ring, which receptor is obtained from Bacillus licheniformis, such as the receptor BlaR or the receptor BlaR-CTD. The isolation and the peptide sequence of the protein BlaR are described in Y. Zhu et al., J. Bacteriol., 1137-1141 (1990); the receptor BlaR-CTD is the carboxy-terminal region of BlaR, whose isolation and peptide sequence are described in B. Joris et al., FEMS Microbiology Letters, 107-114 (1990).
This example illustrates the detection in milk of antibiotics having a β-lactam ring which are monitored by the health authorities. The test described in this example uses the receptor BlaR-CTD coupled with gold beads, which serve as labelling agents, and uses a support which is in the form of an assay device comprising a solid support on which membranes are fixed.
3.79 ml of a solution of recognition agent BlaR-CTD having a concentration of 6.6 mg/ml are taken up in a sodium phosphate buffer, 20 mM pH 7. To this solution of BlaR-CTD are then added 41.71 ml of bicarbonate buffer (0.1 M sodium bicarbonate, pH 9) and 2 ml of a solution of N-hydroxysuccinimide 6-(biotinamido)caproic ester containing 2.23 mg/ml likewise of bicarbonate buffer. This solution is stirred gently on a LABINCO stirrer for tubes on a rotary axis (available from VEL, Belgium) at a rate of 2 revolutions/minute for 2 hours at ambient temperature and away from light. 2.5 ml of a solution of Tris buffer, 1 M pH 8 are incubated with the reaction mixture under the same conditions for 30 minutes. The solution thus obtained is dialysed against HNM buffer (Hepes 100 mM, pH 8, NaCl 100 mM, MgCl2 50 mM) for 24 hours. In this way a biotinylated BlaR-CTD solution is obtained which is diluted in HNM-BSA buffer (Hepes 500 mM, pH 8, NaCl 500 mM, MgCl2 250 mM, BSA 10 mg/ml) to a concentration of 250 μg of biotinylated BlaR-CTD per ml of buffer. This solution is stored at −20° C.
The biotinylated BlaR-CTD solution prepared in Example 3.1.1 is diluted 114.7 times with the HNM-BSA buffer (Hepes 500 mM, pH 8, NaCl 500 mM, MgCl2 250 mM, BSA 10 mg/ml). At room temperature, 22.5 parts by volume of this dilute biotinylated BlaR-CTD solution, 7.5 parts by volume of HNM-BSA buffer, 9.27 parts by volume of the gold particle suspension used to label the biotinylated BlaR-CTD and 6 parts by volume of reference gold particle suspension are mixed (see Example 3.1.4 below).
The first capture substance makes it possible to fix the BlaR-CTD coupled with the gold beads present in excess relative to the quantity of antibiotic present in the sample.
Assay devices containing membranes (2), (3) and (4) are used, assembled in accordance with the procedure described in Example 1.1. The membrane (3) of these devices carries on the proximal side the capture substance described in Example 32.1. and on the distal side the capture substance described in Example 3.2.2. The capture substances were deposited in accordance with the procedure described in Example 1.2.
7 samples of fresh milk are prepared, containing 0; 1; 2; 3; 4; 5 and 6 ppb, respectively, of penicillin G. Each of these solutions is then analysed as follows.
An aliquot is taken of 200 μl of milk sample and 45.27 μl of solution prepared in Example 3.1.3, and is placed in a glass flask. This mixture is incubated at 47° C. for 1 minute. An assay device is taken and is placed vertically in the glass flask such that the first end of the assay device is in contact with the mixture and such that the second end rests on the wall of the glass flask. The mixture is allowed to migrate over the assay device while the assembly is incubated at 47° C. for 2 minutes.
An intensity value ranging from 0 to 10 is awarded to the bands detected, the value 10 being given to the most intense band and the value 0 being given to the least intense band. On this scale, a value of 6 is awarded to the reference band. […]

T1 sequence (P12287 340-601): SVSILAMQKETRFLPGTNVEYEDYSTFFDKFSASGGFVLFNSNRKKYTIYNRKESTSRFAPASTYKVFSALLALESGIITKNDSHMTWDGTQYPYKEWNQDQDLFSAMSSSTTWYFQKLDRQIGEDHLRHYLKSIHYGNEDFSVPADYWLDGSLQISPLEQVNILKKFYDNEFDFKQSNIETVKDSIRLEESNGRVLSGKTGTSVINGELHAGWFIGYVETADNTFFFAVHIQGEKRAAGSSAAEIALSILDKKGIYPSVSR

Question: With `CC1(C)S[C@@H]2[C@H](NC(=O)Cc3ccccc3)C(=O)N2[C@H]1C(=O)O` [Penicillin G, penicillin G] as the compound, how does the “Intensity 1st band” value (1 ppb penicillin G in fresh milk) read?
Answer: 9

Question: And the “Intensity 1st band” value (2 ppb penicillin G in fresh milk)?
Answer: 9

Question: What about the “Intensity 1st band” value (3 ppb penicillin G in fresh milk) of the same compound?
Answer: 4

Question: And the “Intensity 1st band” value (4 ppb penicillin G in fresh milk)?
Answer: 0

Question: What about the “Intensity 1st band” value (5 ppb penicillin G in fresh milk) of the same compound?
Answer: 0

Question: And the “Intensity 1st band” value (6 ppb penicillin G in fresh milk)?
Answer: 0

Question: And the “lowest concentration detected in a milk sample” value (in 3 minutes, positive when first band is less intense than second band)?
Answer: less than 4 ppb
